For eleven compounds, IC50 results are on record in patent US8710061B2, “Compounds for the reduction of β-amyloid production” (Bristol-Myers Squibb Company, priority 2011, dated 2014).

By IC50 is commonly meant the concentration that gives 50% inhibition.

The first assay concerns Aβ42 production in H4 APP751 SWE clone 8.20 cells. Put plainly: Cellular assay for inhibition of Aβ1-42 production. In kind it is cell-based. To be noted: 19 h incubation, read-out: Activity Rating (Aβ42 cellular IC50), class symbol. The method, then: Cellular Assays for Inhibition of Aβ1-40 and Aβ1-42 Production
H4 cells stably transfected with APP751 containing the Swedish mutation (H4 APP751 SWE clone 8.20, developed at BMS) were maintained in log phase through twice weekly passage at a 1:20 split. […] Following incubation for 19 h in 5% CO2 at 37° C., plates were briefly centrifuged (1000 rpm, 5 min). A 10 μl aliquot from each well was transferred to a second assay plate (Costar 3709) for Aβ40 measurements. Antibody cocktails were freshly prepared by dilution into 40 mM Tris-HCl (pH 7.4) with 0.2% BSA and added to assay plates. For Aβ42 measurements, antibodies specific for the Aβ42 neoepitope (565, developed at BMS; conjugated to the Wallac reagent (Perkin Elmer)) and the N-terminal sequence of Aβ peptide (26D6, developed at SIBIA; conjugated to […] (Perkin Elmer)) were mixed and 20 μl of the mixture was added to each well of the incubated cell plate yielding a final concentration of 0.8 ng/well 565 and 75 ng/well 26D6. For the Aβ40 measurements, antibodies specific for the Aβ40 neoepitope (TSD, developed at BMS; conjugated to the Wallac reagent (Perkin Elmer)) and 26D6 as described above were mixed and 20 μl of the mixture was added to the 10 μl aliquots which had been removed previously from the cell plate yielding a final concentration of 1.6 ng/well TSD and 17.5 ng/well 26D6. Assay plates containing antibodies were sealed with aluminum foil and incubated overnight at 4° C. Signal was determined using a Viewlux counter (Perkin Elmer) and IC50 values determined using curve fitting in CurveMaster (Excel Fit based).
In the case of `CNc1nc(Nc2ccc(C#N)c(OC)c2)nc2c1CCC2c1cccc(OC)c1` (racemic) [Example 7, 2-methoxy-4-(7-(3-methoxyphenyl)-4-(methylamino)-6,7-dihydro-5H-cyclopenta[d]pyrimidin-2-ylamino)benzonitrile], the concentration for half-maximal inhibition (IC50) is 10 to 100 nM.

On to `CNc1nc(Nc2ccc(C#N)c(OC)c2)nc2c1CC[C@H]2c1ccccc1Cl` (single isomer, unassigned) [Example 3A], for which the 50% inhibitory concentration (IC50) lay within 1.5 to 9.9 nM.

For the compound `CNc1nc(Nc2ccc(C#N)c(OC)c2)nc2c1CC[C@H]2c1ccccc1F` (single isomer, unassigned) [Example 4A], the IC50 is 10 to 100 nM.

For `CNc1nc(Nc2ccc(C#N)c(OC)c2)nc2c1CC[C@H]2c1ccc(Cl)cc1F` (single isomer, unassigned) [Example 6A], the half-inhibitory concentration (IC50) lay within 10 to 100 nM.

For `CNc1nc(Nc2ccc(C#N)c(OC)c2)nc2c1CC[C@@H]2c1ccccc1OC` [Example 1B, (R)-2-methoxy-4-(7-(2-methoxyphenyl)-4-(methylamino)-6,7-dihydro-5H-cyclopenta[d]pyrimidin-2-ylamino)benzonitrile], the IC50 is 10 to 100 nM.

Turning to `CNc1nc(Nc2ccc(C#N)c(OC)c2)nc2c1CC[C@]2(C)c1ccc(F)cc1` [Example 2B, (R)-4-(7-(4-fluorophenyl)-7-methyl-4-(methylamino)-6,7-dihydro-5H-cyclopenta[d]pyrimidin-2-ylamino)-2-methoxybenzonitrile], the IC50 lay in the range of 100 to 1000 nM.

As for `CNc1nc(Nc2ccc(C#N)c(OC)c2)nc2c1CCC2c1ccc(C(F)(F)F)cc1F` (centres unmarked) [Example 8, 4-(7-(2-fluoro-4-(trifluoromethyl)phenyl)-4-(methylamino)-6,7-dihydro-5H-cyclopenta[d]pyrimidin-2-ylamino)-2-methoxybenzonitrile], the IC50 lay in the range of 10 to 100 nM.

The assay is the same for the next values; noted with them: 19 h incubation, read-out: Activity Rating (Aβ42 cellular IC50), given as number.
As to `CNc1nc(Nc2ccc(C#N)c(OC)c2)nc2c1CC[C@H]2c1ccccc1OC` (single isomer, unassigned) [Example 1A], the IC50 was found to be 13 nM.

`CNc1nc(Nc2ccc(C#N)c(OC)c2)nc2c1CC[C@H]2c1c(F)cc(F)cc1F` (single isomer, unassigned) [Example 5A]: the IC50 came to 11 nM.

Regarding `CNc1nc(Nc2ccc(C#N)c(OC)c2)nc2c1CC[C@@]2(C)c1ccc(F)cc1` [Example 2A, (S)-4-(7-(4-fluorophenyl)-7-methyl-4-(methylamino)-6,7-dihydro-5H-cyclopenta[d]pyrimidin-2-ylamino)-2-methoxybenzonitrile], the IC50 amounted to 200 nM.

As to `CNc1nc(Nc2ccc(C#N)c(OC)c2)nc2c1CCC2c1ccc(OC(F)(F)F)cc1F` (centres unmarked) [Example 9, 4-(7-(2-fluoro-4-(trifluoromethoxy)phenyl)-4-(methylamino)-6,7-dihydro-5H-cyclopenta[d]pyrimidin-2-ylamino)-2-methoxybenzonitrile], the IC50 came out at 12 nM.
